Source: patent US20180215734A1, “PYRIMIDINE DERIVATIVES AS KINASE INHIBITORS AND THEIR THERAPEUTICAL APPLICATIONS” (NantBioScience, Inc., priority 2016, published 2018)

Key:
[1] = test system: KG1a; assay: Inhibition of proliferation (CellTiterblue, 72 hr), KG1a; type: cell-based, human; conditions: Homo sapiens, KG-1a; 72 hr
Procedure: (§1) A number of studies were performed to analyze the consequences of tyrosine kinase inhibition in cell lines. To do this, 1000 cells are seeded in 27 μl/well in 384-well microplates, which are then placed in a humidified CO2 incubator at 37° C. overnight. The next day, 3 μl/well of 10× concentrated drug is added and the plates are returned to the incubator for 72 hr. After 72 hr incubation, plates are removed and 6 μl/well CellTiterblue (Promega) viability reagent is added. Plates are returned to the incubator for 3 hrs, after which fluorescence measurements are read on the Victor X3 plate reader (Perkin Elmer). Data are analyzed using Excel (Microsoft), and GI50 values are determined using Prism (Graphpad).

[2] = target: KDR(h) (Homo sapiens, UniProt P35968); assay: Kinase assay, KDR(h); type: biochemical
Chain of KDR(h) (P35968 20-1356): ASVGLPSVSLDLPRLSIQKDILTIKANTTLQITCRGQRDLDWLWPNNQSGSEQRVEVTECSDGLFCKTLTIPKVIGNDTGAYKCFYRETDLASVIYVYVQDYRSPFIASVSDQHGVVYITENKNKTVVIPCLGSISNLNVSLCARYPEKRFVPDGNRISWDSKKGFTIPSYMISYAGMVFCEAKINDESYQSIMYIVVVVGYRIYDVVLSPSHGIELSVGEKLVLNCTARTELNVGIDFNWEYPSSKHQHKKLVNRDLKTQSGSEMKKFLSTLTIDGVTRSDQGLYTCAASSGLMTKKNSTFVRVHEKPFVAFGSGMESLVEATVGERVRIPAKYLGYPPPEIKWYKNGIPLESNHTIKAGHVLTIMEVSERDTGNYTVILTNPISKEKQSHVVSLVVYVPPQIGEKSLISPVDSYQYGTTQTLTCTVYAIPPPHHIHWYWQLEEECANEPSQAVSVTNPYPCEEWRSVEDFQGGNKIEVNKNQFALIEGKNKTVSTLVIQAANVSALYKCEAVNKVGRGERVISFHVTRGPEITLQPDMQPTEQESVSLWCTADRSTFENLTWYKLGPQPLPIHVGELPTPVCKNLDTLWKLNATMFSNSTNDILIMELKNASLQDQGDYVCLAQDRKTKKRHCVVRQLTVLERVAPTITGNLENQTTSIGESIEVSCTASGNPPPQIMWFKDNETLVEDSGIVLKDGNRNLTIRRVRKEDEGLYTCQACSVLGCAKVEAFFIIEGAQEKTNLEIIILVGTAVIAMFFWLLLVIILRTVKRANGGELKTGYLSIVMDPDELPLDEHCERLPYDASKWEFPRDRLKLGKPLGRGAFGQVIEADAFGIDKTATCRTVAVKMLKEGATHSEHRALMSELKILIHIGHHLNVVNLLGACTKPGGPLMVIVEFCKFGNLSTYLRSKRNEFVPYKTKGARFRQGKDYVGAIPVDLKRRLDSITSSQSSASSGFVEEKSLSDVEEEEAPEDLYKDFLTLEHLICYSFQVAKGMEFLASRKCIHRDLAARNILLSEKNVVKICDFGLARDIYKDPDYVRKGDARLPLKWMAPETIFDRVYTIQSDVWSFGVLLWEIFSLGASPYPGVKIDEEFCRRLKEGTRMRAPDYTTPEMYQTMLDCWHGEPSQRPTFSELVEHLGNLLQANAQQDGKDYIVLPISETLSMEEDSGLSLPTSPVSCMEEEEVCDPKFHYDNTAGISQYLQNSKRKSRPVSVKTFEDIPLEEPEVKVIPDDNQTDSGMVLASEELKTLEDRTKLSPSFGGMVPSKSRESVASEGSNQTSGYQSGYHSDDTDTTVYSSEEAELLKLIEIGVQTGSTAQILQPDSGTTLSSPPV
Procedure: (§2) Kinase assay protocols well known to those of ordinary skill in the art were used. Specifically, the buffer composition was as follows: 20 mM MOPS, 1 mM EDTA, 0.01% Brij-35, 5% Glycerol, 0.1% β-mercaptoethanol, 1 mg/mL BSA. Test compounds were initially dissolved in DMSO at the desired concentration, then serially diluted to the kinase assay buffer. In a final reaction volume of 25 μL FGFR1(h) (5-10 mU) and KDR(h) (5-10 mU) are incubated with 8 mM MOPS pH 7.0, 0.2 mM EDTA, 200 μM LRRASLG (Kemptide), 10 mM magnesium acetate and [γ^33P-ATP]. The reaction was initiated by the addition of the MgATP mix. After incubation for 40 minutes at room temperature, the reaction was stopped by addition of 5 μL of a 3% phosphoric acid solution. Ten L of the reaction was then spotted onto a P30 filter mat and washed three times for 5 minutes in 50 mM phosphoric acid and once in methanol prior to drying and scintillation counting. Wells containing substrate but no kinase and wells containing a phosphopeptide control were used to set 0% and 100% phosphorylation value, respectively.
(§3) Of all of the steps in developing a drug, the hardest is finding promising compounds. (See, e.g., Malo et al., “Statistical practice in high-throughput screening data analysis,” Nature Biotechnology, 2006, 24, 167-75.) Kinase inhibitors often also have an anti-proliferative effect. […] The kinase inhibitory activity Compound 19 was tested using the kinase assay described in Example 3. […] These mutations in the tested kinases are thought to play an important role in transformation of some cancers.

[3] = target: FGFR1(h) (Homo sapiens, UniProt P11362); assay: Kinase assay, FGFR1(h); type: biochemical; conditions: 1 μM
Chain of FGFR1(h) (P11362 22-822): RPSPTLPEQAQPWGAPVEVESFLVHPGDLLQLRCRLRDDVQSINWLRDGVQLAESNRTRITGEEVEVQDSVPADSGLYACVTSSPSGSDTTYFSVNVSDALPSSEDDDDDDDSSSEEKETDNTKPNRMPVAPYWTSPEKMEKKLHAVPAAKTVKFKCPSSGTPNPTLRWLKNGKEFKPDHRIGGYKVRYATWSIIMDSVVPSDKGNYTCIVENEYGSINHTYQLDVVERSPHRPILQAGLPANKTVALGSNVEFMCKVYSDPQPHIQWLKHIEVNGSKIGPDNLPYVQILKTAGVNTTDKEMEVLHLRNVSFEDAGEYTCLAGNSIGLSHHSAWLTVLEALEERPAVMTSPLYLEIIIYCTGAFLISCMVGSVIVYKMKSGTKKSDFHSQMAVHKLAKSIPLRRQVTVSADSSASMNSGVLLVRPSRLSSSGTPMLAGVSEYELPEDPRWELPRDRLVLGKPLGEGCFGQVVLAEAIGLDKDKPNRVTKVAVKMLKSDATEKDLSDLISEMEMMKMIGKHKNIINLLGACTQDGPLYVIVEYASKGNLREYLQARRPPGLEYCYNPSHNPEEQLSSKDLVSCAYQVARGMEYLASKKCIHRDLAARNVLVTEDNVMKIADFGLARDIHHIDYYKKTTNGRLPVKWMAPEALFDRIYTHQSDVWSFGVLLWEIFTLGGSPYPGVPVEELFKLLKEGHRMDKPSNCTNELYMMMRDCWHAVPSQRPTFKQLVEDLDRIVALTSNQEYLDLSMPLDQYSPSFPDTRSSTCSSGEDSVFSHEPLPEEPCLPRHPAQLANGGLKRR
Procedure: as §2, §3

[4] = test system: SNU16; assay: Inhibition of proliferation (CellTiterblue, 72 hr), SNU16; type: cell-based; conditions: Homo sapiens, SNU-16, 72 h
Procedure: as §1

Row | Structure (SMILES) | GI50 [1] [nM] | inhibition at 1 µM [2] [%] | inhibition at 1 µM [3] [%] | GI50 [4] [nM]
1 | CCN1CCN(c2ccc(Nc3ncnc(Oc4ccc5[nH]c(C)cc5c4F)c3C#N)cc2F)CC1 [Compound 8] | 250 | 96 | 97 | 
2 | Cc1cc2c(F)c(Oc3ncnc(Nc4ccc(N5CCN(CC(F)(F)F)CC5)cc4)c3C#N)cc(F)c2[nH]1 [Compound 20] |  | 42 | 70 | 
3 | Cc1cc2c(F)c(Oc3ncnc(Nc4ccc(N5CCCS5(=O)=O)cc4)c3C#N)ccc2[nH]1 [Compound 28] | 226 | 96 | 99 | 
4 | Cc1cc2c(F)c(Oc3ncnc(Nc4ccc(C#N)cc4)c3C#N)cc(F)c2[nH]1 [Compound 55] |  | 6 | 55 | 
5 | Cc1cc2c(F)c(Oc3ncnc(Nc4ccc(CN5CCNCC5)cc4)c3C#N)ccc2[nH]1 [Compound 10] |  | 23 | 34 | 
6 | CCC(=O)Nc1ccc(Nc2ncnc(Oc3cc(F)c4[nH]c(C)cc4c3F)c2C#N)cc1 [Compound 57] | 15 |  |  | 6
7 | C/C=C/C(=O)Nc1ccc(Nc2ncnc(Oc3cc(F)c4[nH]c(C)cc4c3F)c2C#N)cc1 [Compound 60] | 101 |  |  | 92
8 | Cc1cc2c(F)c(Oc3ncnc(Nc4ccc(C5CCNCC5)cc4)c3C#N)ccc2[nH]1 [Compound 30] |  | 94 | 91 | 
9 | CCOc1ccc(Nc2ncnc(Oc3ccc4[nH]c(C)cc4c3F)c2C#N)cc1 [Compound 29] |  | 95 | 91 | 
10 | CC(=O)Nc1ccc(Nc2ncnc(Oc3ccc4[nH]c(C)cc4c3F)c2C#N)cc1 [Compound 25, N-(4-((5-cyano-6-((4-fluoro-2-methyl-1H-indol-5-yl)oxy)pyrimidin-4-yl)amino)phenyl)acetamide] | 30 | 96 | 99 | 
11 | Cc1cc2c(F)c(Oc3ncnc(Nc4ccccc4)c3C#N)ccc2[nH]1 [Compound 23] |  | 96 | 98 | 
12 | Cc1cc2c(F)c(Oc3ncnc(Nc4ccc(N5CCNC(=O)C5)cc4)c3C#N)ccc2[nH]1 [Compound 27] |  | 97 | 99 | 
13 | Cc1cc2c(F)c(Oc3ncnc(Nc4cccc(N5CCOCC5)c4)c3C#N)ccc2[nH]1 [Compound 21] |  | 96 | 100 | 
14 | Cc1cc2c(F)c(Oc3ncnc(Nc4ccc(C(=O)N5CCN(C)CC5)cc4)c3C#N)ccc2[nH]1 [Compound 6] |  | 95 | 85 | 
15 | Cc1cc2c(F)c(Oc3ncnc(Nc4ccc(NC(=O)C5CC5)cc4)c3C#N)cc(F)c2[nH]1 [Compound 35] | 78 | 95 | 100 | 
16 | Cc1cc2c(F)c(Oc3ncnc(Nc4ccc(C(N)=O)cc4)c3C#N)cc(F)c2[nH]1 [Compound 36] | 182 | 67 | 99 | 
17 | Cc1cc2c(F)c(Oc3ncnc(Nc4ccccc4O)c3C#N)cc(F)c2[nH]1 [Compound 43] |  | 76 | 97 | 
18 | Cc1cc2c(F)c(Oc3ncnc(Nc4ccc(N5C[C@@H](C)N[C@@H](C)C5)nc4)c3C#N)cc(F)c2[nH]1 [Compound 61] | 4 |  |  | 75
19 | Cc1cc2c(F)c(Oc3ncnc(Nc4ccc(F)cc4)c3C#N)cc(F)c2[nH]1 [Compound 39] |  | 36 | 91 | 
20 | CCN1CCN(c2cccc(Nc3ncnc(Oc4ccc5[nH]c(C)cc5c4F)c3C#N)c2)CC1 [Compound 22] | 196 | 96 | 100 | 
21 | Cc1cc2c(F)c(Oc3ncnc(Nc4ccc(NC(=O)CN5CCN(C)CC5)cc4)c3C#N)cc(F)c2[nH]1 [Compound 59] | 31 |  |  | 79
22 | Cc1cc2c(F)c(Oc3ncnc(Nc4ccc(N5CCN(C)CC5)c(F)c4)c3C#N)ccc2[nH]1 [Compound 2] | 62 | 96 | 100 | 
23 | CNC(=O)c1ccc(Nc2ncnc(Oc3cc(F)c4[nH]c(C)cc4c3F)c2C#N)cc1 [Compound 37] |  | 70 | 99 | 
